In PubChem BioAssay AID212 (DTP/NCI, 2004):
Where “and” joins values, the source holds several entries; their conditions need not be identical. Equal values may be shown once. Results filed as inconclusive are left out.

Test system: BDF1 mice, colon carcinoma 38 sc, T/C %
Assay: NCI In Vivo Anticancer Drug Screen. Data for tumor model Colon Carcinoma 38 (subcutaneous) in B6D2F1 (BDF1) mice
Conditions: endpoint: median tumor weight (est.), higher = larger tumour
Method in brief: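 Transplantable tumor in mice; compound-treated vs vehicle-dosed controls. Measured survival or tumor size; value = T ÷ C.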

[1] = dose: 25.0 mg/kg/injection, schedule: Q07DX002 (ip), vehicle: saline with Tween-80
[2] = dose: 50.0 mg/kg/injection, schedule: Q07DX002 (ip), vehicle: saline with Tween-80
[3] = dose: 100.0 mg/kg/injection, schedule: Q07DX002 (ip), vehicle: saline with Tween-80
[4] = dose: 50.0 mg/kg/injection, schedule: Q07DX002 (ip), vehicle: Klucel (hydroxypropylcellulose) (HPC)
[5] = dose: 200.0 mg/kg/injection, schedule: Q07DX002 (ip), vehicle: Klucel (hydroxypropylcellulose) (HPC)
[6] = dose: 400.0 mg/kg/injection, schedule: Q07DX002 (ip), vehicle: saline with Tween-80
[7] = dose: 12.5 mg/kg/injection, schedule: Q07DX002 (ip), vehicle: saline with Tween-80
[8] = dose: 200.0 mg/kg/injection, schedule: Q07DX002 (ip), vehicle: saline with Tween-80
[9] = dose: 12.5 mg/kg/injection, schedule: Q07DX002 (ip), vehicle: saline
[10] = dose: 25.0 mg/kg/injection, schedule: Q07DX002 (ip), vehicle: saline

Question: What does the source list for `CCCCCCCCCCCCCCCC(=O)OCC1OC(n2ccc(N)nc2=O)C(O)C1O` (stereo not drawn)?
Answer: T/C [1]: 72 % of control; T/C [2]: 36 % of control; T/C [3]: 7 % of control

Question: Which results are given for `CC1C=NNC1=O` (stereo not drawn)?
Answer: T/C [4]: 84 % of control; T/C (dose: 100.0 mg/kg/injection, schedule: Q07DX002 (ip), vehicle: Klucel (hydroxypropylcellulose) (HPC)): 91 % of control and 96 % of control; T/C [5]: 97 % of control and 98 % of control; T/C (dose: 400.0 mg/kg/injection, schedule: Q07DX002 (ip), vehicle: Klucel (hydroxypropylcellulose) (HPC)): 76 % of control

Question: Which T/C (dose: 0.01 mg/kg/injection, schedule: Q07DX002 (ip), vehicle: saline) does the source give for `CC[C@]1(O)C[C@H]2CN(CCc3c([nH]c4ccccc34)[C@@](C(=O)OC)(c3cc4c(cc3OC)N(C=O)[C@H]3[C@@](O)(C(=O)OC)[C@H](OC(C)=O)[C@]5(CC)C=CCN6CC[C@]43[C@@H]65)C2)C1` here?
Answer: 123 % of control

Question: And the T/C (dose: 0.03 mg/kg/injection, schedule: Q07DX002 (ip), vehicle: saline)?
Answer: 94 % of control

Question: What about the T/C (dose: 0.06 mg/kg/injection, schedule: Q07DX002 (ip), vehicle: saline) of the same molecule?
Answer: 95 % of control

Question: And the T/C (dose: 0.12 mg/kg/injection, schedule: Q07DX002 (ip), vehicle: saline)?
Answer: 54 % of control

Question: What about the T/C (dose: 1.0 mg/kg/injection, schedule: Q07DX002 (ip), vehicle: saline) of the same molecule?
Answer: 96 % of control and 106 % of control

Question: And the T/C (dose: 4.0 mg/kg/injection, schedule: Q07DX002 (ip), vehicle: saline)?
Answer: 43 % of control and 63 % of control

Question: With `CCC(CC)COC(=O)c1ccccc1C(=O)OCC(CC)CC` as the molecule, how does the T/C [1] read?
Answer: 71 % of control

Question: What about the T/C [2] of the same molecule?
Answer: 92 % of control

Question: What about the T/C [6] of the same molecule?
Answer: 122 % of control

Question: How did the T/C [7] turn out when `CC1(c2ccc(Cl)cc2)OC(=O)C(=Cc2ccc([N+](=O)[O-])s2)C(=O)O1` (stereo not drawn) was run?
Answer: 77 % of control

Question: And the T/C [1]?
Answer: 63 % of control

Question: What about the T/C [2] of the same molecule?
Answer: 101 % of control

Question: And the T/C [3]?
Answer: 100 % of control

Question: And the T/C [8]?
Answer: 79 % of control

Question: Which results are given for `COC(=O)Nc1nc2ccc(C3(c4ccc(F)cc4)OCCO3)cc2[nH]1`?
Answer: T/C [9]: 111 % of control and 90 % of control; T/C [10]: 70 % of control and 87 % of control

Question: Which results are given for `NC(=O)c1ccc[n+](Cc2c(Cl)cccc2Cl)c1`?
Answer: T/C (dose: 3.12 mg/kg/injection, schedule: Q07DX002 (ip), vehicle: saline): 83 % of control and 94 % of control; T/C (dose: 6.25 mg/kg/injection, schedule: Q07DX002 (ip), vehicle: saline): 68 % of control; T/C [9]: 97 % of control; T/C [10]: 116 % of control and 94 % of control; T/C (dose: 100.0 mg/kg/injection, schedule: Q07DX002 (ip), vehicle: saline): 85 % of control and 90 % of control

Question: `C1CN1c1nc(N2CC2)nc(N2CC2)n1` was tested. Which T/C (dose: 0.25 mg/kg/injection, schedule: Q07DX003 (ip), vehicle: saline) did it give?
Answer: 30 % of control

Question: What about the T/C (dose: 0.5 mg/kg/injection, schedule: Q07DX003 (ip), vehicle: saline) of the same molecule?
Answer: 43 % of control

Question: What about the T/C (dose: 1.0 mg/kg/injection, schedule: Q07DX003 (ip), vehicle: saline) of the same molecule?
Answer: 36 % of control

Question: Which results are given for `CCCCCCC(=O)/C=C/c1cccc(OCOCC)c1`?
Answer: T/C [2]: 122 % of control; T/C [3]: 103 % of control; T/C [8]: 104 % of control; T/C [6]: 89 % of control

Question: How did the T/C [4] turn out when `N#CCCN(C(=S)Nc1cccc(C(F)(F)F)c1)C1CCCCC1` was run?
Answer: 67 % of control and 71 % of control

Question: What about the T/C [5] of the same molecule?
Answer: 76 % of control and 80 % of control and 88 % of control

Question: And the T/C (dose: 800.0 mg/kg/injection, schedule: Q07DX002 (ip), vehicle: Klucel (hydroxypropylcellulose) (HPC))?
Answer: 79 % of control and 92 % of control

Question: For `NC(N)=NC(N)=Nc1ccc(-c2ccc(N=C(N)N=C(N)N)cc2)cc1`, which T/C (dose: 3.12 mg/kg/injection, schedule: Q07DX002 (ip), vehicle: saline with Tween-80) is on record?
Answer: 72 % of control

Question: And the T/C (dose: 6.25 mg/kg/injection, schedule: Q07DX002 (ip), vehicle: saline with Tween-80)?
Answer: 61 % of control

Question: What about the T/C [7] of the same molecule?
Answer: 75 % of control

Question: What about the T/C [1] of the same molecule?
Answer: 69 % of control

Question: And the T/C [2]?
Answer: 58 % of control
